In ChEMBL document CHEMBL4028801, “A multifactorial approach to hepatobiliary transporter assessment enables improved therapeutic compound development” (Toxicol Sci, 2013):

What was measured:
[1] = biological target: ATP-binding cassette sub-family C member 3 (Homo sapiens, UniProt O15438); assay: Inhibition of human MRP3 overexpressed in Sf9 insect cell membrane vesicles assessed as uptake of [3H]-estradiol-17beta-D-glucuronide in presence of ATP and GSH measured after 10 mins by membrane vesicle transport assay; format: ADME, cell-based
Homo sapiens [2] = assay: Drug concentration at steady state in human at 750 mg, po TID or 1250 mg, po BID after 12 hrs; format: ADME, organism-based; details: in vivo
[3] = Ratio of drug concentration at steady state in human at 750 mg, po TID or 1250 mg, po BID after 12 hrs to IC50 for human BSEP overexpressed in Sf9 insect cells; format: ADME, organism-based; details: in vivo
[4] = Ratio of drug concentration at steady state in human at 750 mg, po TID or 1250 mg, po BID after 12 hrs to IC50 for human MRP4 overexpressed in Sf9 insect cells; format: ADME, organism-based; details: in vivo
[5] = AUC in human at 750 mg, po TID or 1250 mg, po BID after 12 hrs; format: ADME, organism-based; parameters: dose 750 mg, time < 12 hr, route oral; details: in vivo
[6] = biological target: T1, ATP-binding cassette sub-family C member 4 (Homo sapiens, UniProt O15439); assay: Inhibition of human MRP4 overexpressed in Sf9 cell membrane vesicles assessed as uptake of [3H]-estradiol-17beta-D-glucuronide in presence of ATP and GSH measured after 20 mins by membrane vesicle transport assay; format: ADME, cell-based
T1 sequence (O15439 whole entry): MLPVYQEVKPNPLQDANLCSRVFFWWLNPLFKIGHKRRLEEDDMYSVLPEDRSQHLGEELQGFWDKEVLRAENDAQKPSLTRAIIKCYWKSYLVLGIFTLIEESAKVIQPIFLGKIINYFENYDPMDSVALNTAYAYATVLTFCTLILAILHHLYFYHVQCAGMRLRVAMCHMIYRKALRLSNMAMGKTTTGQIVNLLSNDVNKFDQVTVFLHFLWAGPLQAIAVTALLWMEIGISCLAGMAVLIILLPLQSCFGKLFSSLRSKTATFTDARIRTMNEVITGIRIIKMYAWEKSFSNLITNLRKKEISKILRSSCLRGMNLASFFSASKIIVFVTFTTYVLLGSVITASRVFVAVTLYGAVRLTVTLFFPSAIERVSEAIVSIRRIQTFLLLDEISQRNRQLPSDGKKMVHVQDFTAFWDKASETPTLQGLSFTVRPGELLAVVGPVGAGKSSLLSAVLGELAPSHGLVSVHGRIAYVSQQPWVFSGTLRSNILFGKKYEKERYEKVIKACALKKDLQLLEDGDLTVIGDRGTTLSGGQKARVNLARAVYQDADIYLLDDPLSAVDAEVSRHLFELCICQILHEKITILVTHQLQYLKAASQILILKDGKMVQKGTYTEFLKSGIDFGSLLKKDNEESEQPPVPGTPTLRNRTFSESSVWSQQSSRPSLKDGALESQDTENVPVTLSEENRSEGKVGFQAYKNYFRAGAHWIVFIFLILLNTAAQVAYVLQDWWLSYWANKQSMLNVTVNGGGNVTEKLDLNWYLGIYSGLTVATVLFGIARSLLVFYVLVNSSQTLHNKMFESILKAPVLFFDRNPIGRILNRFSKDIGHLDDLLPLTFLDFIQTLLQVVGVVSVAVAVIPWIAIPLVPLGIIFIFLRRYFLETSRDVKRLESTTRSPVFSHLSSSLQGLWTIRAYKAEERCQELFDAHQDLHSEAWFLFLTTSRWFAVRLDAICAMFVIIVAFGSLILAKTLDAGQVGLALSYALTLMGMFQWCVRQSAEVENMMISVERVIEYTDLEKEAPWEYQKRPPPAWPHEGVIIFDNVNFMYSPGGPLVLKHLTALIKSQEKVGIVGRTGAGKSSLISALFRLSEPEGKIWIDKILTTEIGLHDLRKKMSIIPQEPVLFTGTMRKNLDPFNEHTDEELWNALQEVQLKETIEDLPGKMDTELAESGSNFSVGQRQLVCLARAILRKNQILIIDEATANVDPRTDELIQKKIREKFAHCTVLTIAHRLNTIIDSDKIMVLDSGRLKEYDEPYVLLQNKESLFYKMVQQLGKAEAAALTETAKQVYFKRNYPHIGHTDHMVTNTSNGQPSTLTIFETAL

[7] = biological target: ATP-binding cassette sub-family C member 2 (Homo sapiens, UniProt Q92887); assay: Inhibition of human MRP2 overexpressed in Sf9 cell membrane vesicles assessed as uptake of [3H]-estradiol-17beta-D-glucuronide in presence of ATP and GSH measured after 20 mins by membrane vesicle transport assay
[8] = AUC in human at 100 mg, po BID; format: ADME, organism-based; details: in vivo
[9] = Ratio of drug concentration at steady state in human at 100 mg, po BID to IC50 for human MRP4 overexpressed in Sf9 insect cells; format: ADME, organism-based; details: in vivo
Homo sapiens [10] = assay: Drug concentration at steady state in human at 100 mg, po BID; format: ADME, organism-based; details: in vivo
[11] = Ratio of AUC in liver to plasma in Sprague-Dawley rat at 1500 mg/kg, po administered as single oral gavage measured after 24 hrs by Liquid chromatography/tandem mass spectrometry; format: ADME, organism-based; details: liver and plasma, read-out: Ratio AUC
[12] = Ratio of drug concentration at steady state in human at 100 mg, po BID to IC50 for human MRP3 overexpressed in Sf9 insect cells; format: ADME, organism-based; details: in vivo
Bile salt export pump = Bile salt export pump (Homo sapiens, UniProt O95342); assay: Inhibition of human BSEP overexpressed in Sf9 cell membrane vesicles assessed as uptake of [3H]-taurocholate in presence of ATP measured after 15 to 20 mins by membrane vesicle transport assay; format: ADME, cell-based
[13] = Ratio of drug concentration at steady state in human at 100 mg, po BID to IC50 for human BSEP overexpressed in Sf9 insect cells; format: ADME, organism-based; details: in vivo
[14] = Drug concentration at steady state in human at 20 to 40 mg/kg, po QD after 24 hrs; format: ADME, organism-based; details: in vivo, read-out: Css
[15] = Ratio of drug concentration at steady state in human at 20 to 40 mg/kg, po QD after 24 hrs to IC50 for human MRP4 overexpressed in Sf9 insect cells; format: ADME, organism-based; details: in vivo
[16] = Ratio of drug concentration at steady state in human at 20 to 40 mg/kg, po QD after 24 hrs to IC50 for human BSEP overexpressed in Sf9 insect cells; format: ADME, organism-based; details: in vivo
[17] = AUC in human at 20 to 40 mg/kg, po QD after 24 hrs; format: ADME, organism-based; details: in vivo
[18] = Drug concentration at steady state in human at 43 to 130 mg, po QD after 24 hrs; format: ADME, organism-based; details: in vivo, read-out: Css
clinical = details: human, in vivo, po
[19] = AUC in patient with osteomyelitis at 1500 mg, po QD after 24 hrs; format: ADME, organism-based; parameters: time < 24 hr, dose 1500 mg, route oral; details: human, in vivo
[20] = Drug concentration at steady state in patient with osteomyelitis at 1500 mg, po QD after 24 hrs; format: ADME, organism-based; details: human, in vivo, read-out: Css
[21] = Ratio of drug concentration at steady state in patient with osteomyelitis at 1500 mg, po QD after 24 hrs to IC50 for human BSEP overexpressed in Sf9 insect cells; format: ADME, organism-based; details: in vivo
[22] = Drug concentration at steady state in human at 600 mg, po QD after 24 hrs; format: ADME, organism-based; details: in vivo, read-out: Css
[23] = Ratio of drug concentration at steady state in human at 600 mg, po QD after 24 hrs to IC50 for human BSEP overexpressed in Sf9 insect cells; format: ADME, organism-based; details: in vivo
[24] = AUC in human at 600 mg, po QD after 24 hrs; format: ADME, organism-based; parameters: time < 24 hr, dose 600 mg, route oral; details: in vivo

ATP-binding cassette sub-family C member 2, sequence (Q92887 whole entry): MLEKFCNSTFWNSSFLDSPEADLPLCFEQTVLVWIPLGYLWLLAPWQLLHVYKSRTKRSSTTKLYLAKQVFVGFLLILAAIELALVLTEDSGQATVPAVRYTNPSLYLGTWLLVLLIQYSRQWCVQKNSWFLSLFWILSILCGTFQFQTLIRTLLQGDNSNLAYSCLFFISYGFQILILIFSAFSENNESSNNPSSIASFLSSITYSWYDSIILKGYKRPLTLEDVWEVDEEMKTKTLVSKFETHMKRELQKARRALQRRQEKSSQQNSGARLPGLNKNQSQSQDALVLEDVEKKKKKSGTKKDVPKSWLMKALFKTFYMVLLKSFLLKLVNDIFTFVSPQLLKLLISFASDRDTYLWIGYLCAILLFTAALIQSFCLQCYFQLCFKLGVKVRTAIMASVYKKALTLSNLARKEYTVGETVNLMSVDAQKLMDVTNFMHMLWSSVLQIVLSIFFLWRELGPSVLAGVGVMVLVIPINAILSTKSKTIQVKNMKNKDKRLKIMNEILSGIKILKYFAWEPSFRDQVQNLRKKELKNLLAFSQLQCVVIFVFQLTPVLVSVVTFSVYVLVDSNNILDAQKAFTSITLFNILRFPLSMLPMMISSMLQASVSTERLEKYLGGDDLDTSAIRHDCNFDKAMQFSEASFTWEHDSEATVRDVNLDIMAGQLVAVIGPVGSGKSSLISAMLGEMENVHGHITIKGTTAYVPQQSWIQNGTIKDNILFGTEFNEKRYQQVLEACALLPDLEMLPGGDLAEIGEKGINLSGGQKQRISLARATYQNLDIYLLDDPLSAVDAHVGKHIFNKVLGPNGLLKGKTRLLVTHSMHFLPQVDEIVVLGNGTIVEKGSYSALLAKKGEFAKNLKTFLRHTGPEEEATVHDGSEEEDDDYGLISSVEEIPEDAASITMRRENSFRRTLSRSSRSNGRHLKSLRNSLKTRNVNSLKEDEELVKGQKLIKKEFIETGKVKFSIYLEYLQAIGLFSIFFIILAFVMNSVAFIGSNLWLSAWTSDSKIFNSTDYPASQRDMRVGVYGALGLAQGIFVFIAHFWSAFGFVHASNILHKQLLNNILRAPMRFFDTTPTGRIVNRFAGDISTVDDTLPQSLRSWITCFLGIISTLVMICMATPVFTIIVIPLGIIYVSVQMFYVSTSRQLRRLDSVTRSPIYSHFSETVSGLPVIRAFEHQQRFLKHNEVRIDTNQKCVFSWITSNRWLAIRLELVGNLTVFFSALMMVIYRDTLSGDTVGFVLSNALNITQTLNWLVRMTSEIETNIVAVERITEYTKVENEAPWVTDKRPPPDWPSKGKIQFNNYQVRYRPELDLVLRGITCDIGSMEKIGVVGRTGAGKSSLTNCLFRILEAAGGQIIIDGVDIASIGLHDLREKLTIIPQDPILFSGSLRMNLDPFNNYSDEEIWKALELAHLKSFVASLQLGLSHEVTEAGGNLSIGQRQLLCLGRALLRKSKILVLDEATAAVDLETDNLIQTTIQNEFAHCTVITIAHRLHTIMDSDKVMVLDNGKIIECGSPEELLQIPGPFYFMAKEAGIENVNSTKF
ATP-binding cassette sub-family C member 3, sequence (O15438 whole entry): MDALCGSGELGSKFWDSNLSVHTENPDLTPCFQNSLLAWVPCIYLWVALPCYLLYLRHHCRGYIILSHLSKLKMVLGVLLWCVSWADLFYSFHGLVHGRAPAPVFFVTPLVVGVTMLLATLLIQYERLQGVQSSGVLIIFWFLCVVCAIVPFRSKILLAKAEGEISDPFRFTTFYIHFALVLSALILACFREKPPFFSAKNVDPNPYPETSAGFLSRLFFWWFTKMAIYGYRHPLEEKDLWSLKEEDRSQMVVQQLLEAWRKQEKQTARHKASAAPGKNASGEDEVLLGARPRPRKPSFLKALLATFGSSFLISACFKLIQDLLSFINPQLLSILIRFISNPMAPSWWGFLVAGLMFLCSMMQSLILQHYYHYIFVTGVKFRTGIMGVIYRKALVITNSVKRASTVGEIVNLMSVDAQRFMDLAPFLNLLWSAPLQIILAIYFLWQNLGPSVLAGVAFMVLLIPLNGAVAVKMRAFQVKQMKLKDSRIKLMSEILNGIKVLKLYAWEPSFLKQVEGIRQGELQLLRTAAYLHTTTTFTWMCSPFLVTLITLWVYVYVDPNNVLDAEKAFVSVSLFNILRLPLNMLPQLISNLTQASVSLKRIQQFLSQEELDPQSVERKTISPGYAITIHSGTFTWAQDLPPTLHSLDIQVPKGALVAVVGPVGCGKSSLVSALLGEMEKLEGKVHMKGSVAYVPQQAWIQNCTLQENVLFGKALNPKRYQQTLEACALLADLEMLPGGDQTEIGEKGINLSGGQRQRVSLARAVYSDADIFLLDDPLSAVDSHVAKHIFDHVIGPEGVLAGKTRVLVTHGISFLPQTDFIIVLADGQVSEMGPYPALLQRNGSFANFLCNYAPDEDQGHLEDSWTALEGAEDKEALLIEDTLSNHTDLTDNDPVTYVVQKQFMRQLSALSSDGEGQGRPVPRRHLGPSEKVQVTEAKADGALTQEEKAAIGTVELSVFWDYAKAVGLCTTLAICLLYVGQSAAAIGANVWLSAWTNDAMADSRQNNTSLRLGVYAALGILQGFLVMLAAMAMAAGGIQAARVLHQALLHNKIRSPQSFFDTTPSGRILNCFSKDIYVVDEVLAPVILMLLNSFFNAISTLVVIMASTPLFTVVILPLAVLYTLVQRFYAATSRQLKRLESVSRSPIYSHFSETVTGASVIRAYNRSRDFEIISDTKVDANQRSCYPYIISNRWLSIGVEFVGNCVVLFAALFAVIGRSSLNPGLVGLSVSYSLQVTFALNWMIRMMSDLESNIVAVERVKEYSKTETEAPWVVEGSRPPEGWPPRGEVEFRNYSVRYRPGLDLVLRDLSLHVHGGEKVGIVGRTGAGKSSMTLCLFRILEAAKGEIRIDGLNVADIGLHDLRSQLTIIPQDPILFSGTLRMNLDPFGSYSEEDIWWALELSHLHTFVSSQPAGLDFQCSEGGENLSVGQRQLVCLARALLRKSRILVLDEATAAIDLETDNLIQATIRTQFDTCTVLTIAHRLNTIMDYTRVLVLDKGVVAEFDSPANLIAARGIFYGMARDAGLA
Bile salt export pump, sequence (O95342 whole entry): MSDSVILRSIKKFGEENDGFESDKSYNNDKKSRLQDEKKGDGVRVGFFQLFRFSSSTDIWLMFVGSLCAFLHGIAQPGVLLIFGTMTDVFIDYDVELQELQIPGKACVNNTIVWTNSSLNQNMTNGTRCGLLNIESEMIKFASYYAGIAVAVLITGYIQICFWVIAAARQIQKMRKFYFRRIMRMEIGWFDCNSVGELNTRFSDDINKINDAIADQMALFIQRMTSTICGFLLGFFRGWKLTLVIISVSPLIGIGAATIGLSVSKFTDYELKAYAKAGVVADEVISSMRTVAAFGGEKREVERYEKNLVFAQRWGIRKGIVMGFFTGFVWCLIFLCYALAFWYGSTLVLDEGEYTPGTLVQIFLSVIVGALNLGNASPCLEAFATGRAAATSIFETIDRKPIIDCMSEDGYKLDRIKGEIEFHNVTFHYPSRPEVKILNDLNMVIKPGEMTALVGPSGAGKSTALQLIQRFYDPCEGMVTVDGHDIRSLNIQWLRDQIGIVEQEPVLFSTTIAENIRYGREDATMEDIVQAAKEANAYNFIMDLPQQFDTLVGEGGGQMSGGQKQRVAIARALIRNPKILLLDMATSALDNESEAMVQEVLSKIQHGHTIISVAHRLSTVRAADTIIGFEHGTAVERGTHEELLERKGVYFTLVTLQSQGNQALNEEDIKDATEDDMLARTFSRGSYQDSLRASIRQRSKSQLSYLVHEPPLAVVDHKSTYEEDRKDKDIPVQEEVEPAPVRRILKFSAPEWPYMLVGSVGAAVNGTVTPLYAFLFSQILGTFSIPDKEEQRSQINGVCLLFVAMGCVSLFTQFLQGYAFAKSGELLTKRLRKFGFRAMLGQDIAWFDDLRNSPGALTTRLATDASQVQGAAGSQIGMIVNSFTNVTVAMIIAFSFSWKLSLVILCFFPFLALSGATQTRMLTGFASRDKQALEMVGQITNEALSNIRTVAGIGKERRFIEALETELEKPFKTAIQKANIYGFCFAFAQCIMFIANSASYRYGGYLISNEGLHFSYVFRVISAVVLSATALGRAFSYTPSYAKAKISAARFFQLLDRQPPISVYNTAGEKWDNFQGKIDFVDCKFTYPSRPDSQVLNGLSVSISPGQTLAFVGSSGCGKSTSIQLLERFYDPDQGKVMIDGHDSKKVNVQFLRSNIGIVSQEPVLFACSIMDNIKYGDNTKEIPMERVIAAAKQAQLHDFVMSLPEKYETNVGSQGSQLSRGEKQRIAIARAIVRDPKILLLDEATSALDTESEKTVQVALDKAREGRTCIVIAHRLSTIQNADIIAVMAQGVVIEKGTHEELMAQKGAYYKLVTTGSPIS

Cc1c(O)cccc1C(=O)N[C@@H](CSc1ccccc1)[C@H](O)CN1C[C@H]2CCCC[C@H]2C[C@H]1C(=O)NC(C)(C)C
IC50 [1]: > 133 µM | Css (Homo sapiens [2]): 6.482 µM | Ratio [3]: 0.549 | Ratio [4]: 0.067 | AUC at 12 h [5]: 77.8 µM·h | IC50 [6]: 97 µM | IC50 [7]: > 133 µM

CCCCNC(=O)c1ccc(Oc2ccc(CC(=O)O)cc2OC)c(NS(=O)(=O)c2ccc(Cl)cc2Cl)c1
IC50 [1]: 1.1 µM | AUC [8]: 32800 ng·h/mL | Ratio [9]: 0.18 | Css (Homo sapiens [10]): 2.4 µM | Kp at 24 h [11]: 27 | Ratio [12]: 2.2 | IC50 (Bile salt export pump): 11.5 µM | IC50 [6]: 13.5 µM | Ratio [13]: 0.21

O=C(O)c1ccc(-n2nc(-c3ccccc3O)nc2-c2ccccc2O)cc1 [DEFERASIROX]
concentration at 24 h [14]: 138 µM | IC50 [1]: > 133 µM | Ratio [15]: 3.781 | Ratio [16]: 2.363 | AUC at 24 h [17]: 3310 µM·h | IC50 (Bile salt export pump): 58.4 µM | IC50 [6]: 36.5 µM | IC50 [7]: > 133 µM

CC(C)OC(=O)C(C)(C)Oc1ccc(C(=O)c2ccc(Cl)cc2)cc1 [FENOFIBRATE]
concentration at 24 h [18]: 14.9 µM | IC50 [1]: > 133 µM | AUC at 24 h (clinical): 357 µM·h | IC50 [6]: > 133 µM | IC50 [7]: > 133 µM

CC(=O)O[C@H]1C[C@@]2(C)[C@@H](C[C@@H](O)[C@H]3[C@@]4(C)CC[C@@H](O)[C@@H](C)[C@@H]4CC[C@@]32C)/C1=C(\CCC=C(C)C)C(=O)O [FUSIDIC ACID]
IC50 [1]: > 133 µM | AUC at 24 h [19]: 6390 µM·h | concentration at 24 h [20]: 266 µM | Ratio [21]: 26.38 | IC50 [6]: > 133 µM | IC50 [7]: > 133 µM

CC#C[C@]1(O)CC[C@H]2[C@@H]3CCC4=CC(=O)CCC4=C3[C@@H](c3ccc(N(C)C)cc3)C[C@@]21C [MIFEPRISTONE]
IC50 [1]: > 133 µM | concentration at 24 h [22]: 7.56 µM | Ratio [23]: 3.743 | AUC at 24 h [24]: 181 µM·h | IC50 (Bile salt export pump): 2.02 µM | IC50 [6]: > 133 µM | IC50 [7]: > 133 µM
